Experimental data taken from patent US20230233569A1 (Revolution Medicines, Inc., priority 2020, published 2023).

Legend:
[1] = system: 4EBP1 (Thr37/46) phosphorylation (mTORC1) in MDA-MB-468 cells; test: Cell based AlphaLISA assay, mTOR kinase cellular assay: inhibition of p-4E-BP1 (T37/46) in MDA-MB-468 cells; settings: Homo sapiens, read-out: pIC50 for Inhibition of mTORC1 and mTORC2 Substarte Phosphorylation p-4E-BP1-(T37/46) (converted)
Procedure: (§1) Cell Based AlphaLISA Assays for Determining IC50 For Inhibition of P-Akt (S473), P-4E-BP1 (T37/46), and P-P70S6K (T389) in MDA-MB-468 Cells
(§2) mTOR Kinase Cellular Assay
(§3) To measure functional activity of mTORC1 and mTORC2 in cells the phosphorylation of 4EBP1 (Thr37/46) and P70S6K (Thr389), and AKT1/2/3 (Ser473) was monitored using AlphaLisa SureFire Ultra Kits (Perkin Elmer). MDA-MB-468 cells (ATCC® HTB-132) were cultured in 96-well tissue culture plates and treated with compounds in the disclosure at concentrations varying from 0.017-1,000 nM for two to four hours at 37° C. Incubations were terminated by removal of the assay buffer and addition of lysis buffer provided with the assay kit. Samples were processed according to the manufacturer's instructions. The Alpha signal from the respective phosphoproteins was measured in duplicate using a microplate reader (Envision, Perkin-Elmer or Spectramax M5, Molecular Devices). Inhibitor concentration response curves were analyzed using normalized IC50 regression curve fitting with control based normalization.

[2] = system: NCI-H358 (K-Ras G12C); test: CellTiter-Glo cell viability assay; format: cell-based; settings: Homo sapiens, NCI-H358, 120 h, read-out: H358 Cell Viability assay data IC50, K-Ras G12C, 5-day treatment
Summary of the method: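 Percent-of-DMSO luminescence values (CellTiter-Glo, day 5, plates equilibrated ~30 minutes at ambient temperature) were curve-fitted using a 4-parameter logistic equation; compounds had been added straight into wells containing the cells.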

[3] = system: AKT1/2/3 (Ser473) phosphorylation (mTORC2) in MDA-MB-468 cells; test: Cell based AlphaLISA assay, mTOR kinase cellular assay: inhibition of p-Akt (S473) in MDA-MB-468 cells; settings: Homo sapiens, read-out: pIC50 for Inhibition of mTORC1 and mTORC2 Substarte Phosphorylation p-AKT1/2/3-(S473) (converted)
Procedure: as §1, §2, §3

In the case of CO[C@H]1C[C@@H]2CC[C@@H](C)[C@@](O)(O2)C(=O)C(=O)N2CCCC[C@H]2C(=O)O[C@H]([C@H](C)C[C@@H]2CC[C@@H](OC(=O)NCc3cnc(N4CCN(c5ncc(C(=O)N6CCN(c7ncc(C(=O)N8CCc9cc(Cn%10nc(-c%11ccc%12oc(N)nc%12c%11)c%11c(N)ncnc%11%10)ccc9C8)cn7)CC6)cn5)CC4)nc3)[C@H](OC)C2)CC(=O)[C@H](C)/C=C(\C)[C@@H](O)[C@@H](OC)C(=O)[C@H](C)C[C@H](C)/C=C/C=C/C=C/1C [Example 60], the IC50 [1] is reported as 3.16 to 31.6 nM.
With CCn1c(-c2cccnc2COC)c2c3cc(ccc31)-c1cc(O)cc(c1)C[C@H](NC(=O)[C@H](C(C)C)N(C)C(=O)CCNC(=O)NCCCl)C(=O)N1CCC[C@H](N1)C(=O)OCC(C)(C)C2 [Example 25] the IC50 [2] was over 10000 nM.
For CO[C@H]1C[C@@H]2CC[C@@H](C)[C@@](O)(O2)C(=O)C(=O)N2CCCC[C@H]2C(=O)O[C@H]([C@H](C)C[C@@H]2CC[C@@H](OC(=O)NCc3cnc(N4CCN(C(=O)CCOCCN5CCN(c6ncc(C(=O)NCCCCn7nc(-c8ccc9oc(N)nc9c8)c8c(N)ncnc87)cn6)CC5)CC4)nc3)[C@H](OC)C2)CC(=O)[C@H](C)/C=C(\C)[C@@H](O)[C@@H](OC)C(=O)[C@H](C)C[C@H](C)/C=C/C=C/C=C/1C [Example 54], the IC50 [1] was at most 3.16 nM and the IC50 [3] was at most 3.16 nM.
Work on CO[C@H]1C[C@@H]2CC[C@@H](C)[C@@](O)(O2)C(=O)C(=O)N2CCCC[C@H]2C(=O)O[C@H]([C@H](C)C[C@@H]2CC[C@@H](OC(=O)NCc3cnc(N4CCN(c5ncc(C(=O)N(C)CCOCCOCCOCCOCCC(=O)N6CCc7cc(Cn8nc(-c9ccc%10oc(N)nc%10c9)c9c(N)ncnc98)ccc7C6)c(N)n5)CC4)nc3)[C@H](OC)C2)C[C@@H](OC)[C@H](C)/C=C(\C)[C@@H](O)[C@@H](OC)C(=O)[C@H](C)C[C@H](C)/C=C/C=C/C=C/1C [Example 107] yielded an IC50 [1] of over 1000 nM and an IC50 [3] of over 1000 nM.
Compound CO[C@H]1C[C@@H]2CC[C@@H](C)[C@@](O)(O2)C(=O)C(=O)N2CCCC[C@H]2C(=O)O[C@H]([C@H](C)C[C@@H]2CC[C@@H](OC(=O)NCc3cnc(N4CCN(c5ncc(C(=O)NCCOCCOCCOCCOCCC(=O)N6CCc7cc(Cn8nc(-c9ccc%10oc(N)nc%10c9)c9c(N)ncnc98)ccc7C6)c(N)n5)CC4)nc3)[C@H](OC)C2)C[C@@H](OC)[C@H](C)/C=C(\C)[C@@H](O)[C@@H](OC)C(=O)[C@H](C)C[C@H](C)/C=C/C=C/C=C/1C [Example 106] has an IC50 [1] of 3.16 to 31.6 nM and an IC50 [3] of over 1000 nM.
CO[C@H]1C[C@@H]2CC[C@@H](C)[C@@](O)(O2)C(=O)C(=O)N2CCCC[C@H]2C(=O)O[C@H]([C@H](C)C[C@@H]2CC[C@@H](OC(=O)NCCOCCOCCOCCOCCOCCOCCOCCOCCC(=O)NCc3ccc(Cn4nc(-c5ccc6oc(N)nc6c5)c5c(N)ncnc54)cc3)[C@H](OC)C2)C[C@H](N=[N+]=[N-])[C@H](C)/C=C(\C)[C@@H](O)[C@@H](OC)C(=O)[C@H](C)C[C@H](C)/C=C/C=C/C=C/1C [Example 82] showed an IC50 [1] of at most 3.16 nM.
Compound CO[C@H]1C[C@@H]2CC[C@@H](C)[C@@](O)(O2)C(=O)C(=O)N2CCCC[C@H]2C(=O)O[C@H]([C@H](C)C[C@@H]2CC[C@@H](OC(=O)NCc3cnc(N4CCN(CCOCCN5CCN(c6ncc(C(=O)N7CCc8cc(Cn9nc(-c%10ccc%11oc(N)nc%11c%10)c%10c(N)ncnc%109)ccc8C7)cn6)CC5)CC4)nc3)[C@H](OC)C2)C[C@@H](OC)[C@H](C)/C=C(\C)[C@@H](O)[C@@H](OC)C(=O)[C@H](C)C[C@H](C)/C=C/C=C/C=C/1C [Example 125] has an IC50 [1] of at most 3.16 nM.
With CO[C@H]1C[C@@H]2CC[C@@H](C)[C@@](O)(O2)C(=O)C(=O)N2CCCC[C@H]2C(=O)O[C@H]([C@H](C)C[C@@H]2CC[C@@H](OC(=S)NCc3cnc(N4CCN(C(=O)CCOCCN5CCN(c6ncc(C(=O)N7CCc8cc(Cn9nc(-c%10ccc%11oc(N)nc%11c%10)c%10c(N)ncnc%109)ccc8C7)cn6)CC5)CC4)nc3)[C@H](OC)C2)C[C@@H](OC)[C@H](C)/C=C(\C)[C@@H](O)[C@@H](OC)C(=O)[C@H](C)C[C@H](C)/C=C/C=C/C=C/1C [Example 118] the IC50 [3] was 3.16 to 31.6 nM.
Compound CO[C@H]1C[C@@H]2CC[C@@H](C)[C@@](O)(O2)C(=O)C(=O)N2CCCC[C@H]2C(=O)O[C@H]([C@H](C)C[C@@H]2CC[C@@H](OC(=O)NCc3cnc(N4CCN(C(=O)CCOCCN5CCN(c6ncc(C(=O)N7CCc8cc(Cn9nc(-c%10ccc%11oc(N)nc%11c%10)c%10c(N)ncnc%109)ccc8C7)cn6)CC5)CC4)nc3)[C@H](OC)C2)C[C@H](N=[N+]=[N-])[C@H](C)/C=C(\C)[C@@H](O)[C@@H](OC)C(=O)[C@H](C)C[C@H](C)/C=C/C=C/C=C/1C [Example 151] has an IC50 [3] of over 1000 nM.
Work on CO[C@H]1C[C@@H]2CC[C@@H](C)[C@@](O)(O2)C(=O)C(=O)N2CCCC[C@H]2C(=O)O[C@H]([C@H](C)C[C@@H]2CC[C@@H](OC(=O)NCCOCCOCCOCCOCCOCCOCCOCCOCC(=O)N3CCc4cc(Cn5nc(-c6ccc7oc(N)nc7c6)c6c(N)ncnc65)ccc4C3)[C@H](OC)C2)C[C@@H](O)[C@H](C)/C=C(\C)[C@@H](O)[C@@H](OC)C(=O)[C@H](C)C[C@H](C)/C=C/C=C/C=C/1C [Example 72] yielded an IC50 [3] of at most 3.16 nM.
CO[C@H]1C[C@@H]2CC[C@@H](C)[C@@](O)(O2)C(=O)C(=O)N2CCCC[C@H]2C(=O)O[C@H]([C@H](C)C[C@@H]2CC[C@@H](OC(=O)NCc3cnc(N4CCN(C(=O)CCOCCN5CCN(c6ncc(C(=O)NCCS(=O)(=O)c7ccc(C(=O)N8CCOc9ccc(-c%10ccc(N)nc%10)cc9C8)c(C)c7)cn6)CC5)CC4)nc3)[C@H](OC)C2)CC(=O)[C@H](C)/C=C(\C)[C@@H](O)[C@@H](OC)C(=O)[C@H](C)C[C@H](C)/C=C/C=C/C=C/1C [Example 121] was tested, and the IC50 [3] was over 1000 nM.
CO[C@H]1C[C@@H]2CC[C@@H](C)[C@@](O)(O2)C(=O)C(=O)N2CCCC[C@H]2C(=O)O[C@H]([C@H](C)C[C@@H]2CC[C@@H](O)[C@H](OC)C2)CC(=O)[C@H](C)/C=C(\C)[C@@H](OC(=O)NCc2cnc(N3CCN(C(=O)CCOCCN4CCN(c5ncc(C(=O)N6CCc7cc(Cn8nc(-c9ccc%10oc(N)nc%10c9)c9c(N)ncnc98)ccc7C6)cn5)CC4)CC3)nc2)[C@@H](OC)C(=O)[C@H](C)C[C@H](C)/C=C/C=C/C=C/1C [Example 133] gave an IC50 [1] of at most 3.16 nM.
Work on CO[C@H]1C[C@@H]2CC[C@@H](C)[C@@](O)(O2)C(=O)C(=O)N2CCCC[C@H]2C(=O)O[C@H]([C@H](C)C[C@@H]2CC[C@@H](OC(=S)NCc3cnc(N4CCN(C(=O)CCOCCN5CCN(c6ncc(C(=O)N7CCc8cc(Cn9nc(-c%10ccc%11oc(N)nc%11c%10)c%10c(N)ncnc%109)ccc8C7)cn6)CC5)CC4)nc3)[C@H](OC)C2)CC(=O)[C@H](C)/C=C(\C)[C@@H](O)[C@@H](OC)C(=O)[C@H](C)C[C@H](C)/C=C/C=C/C=C/1C [Example 116] yielded an IC50 [3] of over 1000 nM.
In the case of CO[C@H]1C[C@@H]2CC[C@@H](C)[C@@](O)(O2)C(=O)C(=O)N2CCCC[C@H]2C(=O)O[C@H]([C@H](C)C[C@@H]2CC[C@@H](OC(=O)NCc3cnc(N4CCN(C(=O)CCOCCN5CCN(c6ncc(C(=O)N7CCc8cc(Cn9nc(-c%10cnc%11[nH]ccc%11c%10)c%10c(N)ncnc%109)ccc8C7)cn6)CC5)[C@@H](C(=O)O)C4)nc3)[C@H](OC)C2)CC(=O)[C@H](C)/C=C(\C)[C@@H](O)[C@@H](OC)C(=O)[C@H](C)C[C@H](C)/C=C/C=C/C=C/1C [Example 132], the IC50 [1] is reported as at most 3.16 nM and the IC50 [3] is reported as 3.16 to 31.6 nM.
CO[C@H]1C[C@@H]2CC[C@@H](C)[C@@](O)(O2)C(=O)C(=O)N2CCCC[C@H]2C(=O)O[C@H]([C@H](C)C[C@@H]2CC[C@@H](OC(=O)N3CCc4nc(N5CCN(CCOCCN6CCN(c7ncc(C(=O)N8CCc9cc(Cn%10nc(-c%11ccc%12oc(N)nc%12c%11)c%11c(N)ncnc%11%10)ccc9C8)cn7)CC6)CC5)ncc4C3)[C@H](OC)C2)C[C@@H](OC)[C@H](C)/C=C(\C)[C@@H](O)[C@@H](OC)C(=O)[C@H](C)C[C@H](C)/C=C/C=C/C=C/1C [Example 126] was tested, and the IC50 [1] was 3.16 to 31.6 nM.
CO[C@H]1C[C@@H]2CC[C@@H](C)[C@@](O)(O2)C(=O)C(=O)N2CCCC[C@H]2C(=O)O[C@H]([C@H](C)C[C@@H]2CC[C@@H](OC(=O)NCc3cnc(N4CCN(C(=O)CN(C)CC(=O)NCCOCCOCCC(=O)N5CCc6cc(Cn7nc(-c8ccc9oc(N)nc9c8)c8c(N)ncnc87)ccc6C5)CC4)nc3)[C@H](OC)C2)C[C@@H](OC)[C@H](C)/C=C(\C)[C@@H](O)[C@@H](OC)C(=O)[C@H](C)C[C@H](C)/C=C/C=C/C=C/1C [Example 103] was tested, and the IC50 [1] was over 1000 nM and the IC50 [3] was over 1000 nM.
For CO[C@H]1C[C@@H]2CC[C@@H](C)[C@@](O)(O2)C(=O)C(=O)N2CCCC[C@H]2C(=O)O[C@H]([C@H](C)C[C@@H]2CC[C@@H](OC(=O)NCCOCCOCCOCCOCCOCCOCCOCCOCCC(=O)NCc3ccc(Cn4nc(-c5ccc6oc(N)nc6c5)c5c(N)ncnc54)cc3)[C@H](OC)C2)CC(=O)[C@H](C)/C=C(\C)[C@@H](O)[C@@H](OC)C(=O)[C@H](C)C[C@H](C)/C=C/C=C/C=C/1C [Example 79], the IC50 [3] was 31.6 to 1000 nM.
